From the NIST ThermoML archive (doi:10.1016/j.fluid.2018.09.017)

Assay: molar heat capacity at constant pressure
Conditions: Liquid, Flow calorimetry

CCCCCCCCCCCC(=O)OCC [ethyl dodecanoate]
Conditions | molar heat capacity at constant pressure [J/K/mol]
313.26 K, 5030 kPa | 472
313.26 K, 9990 kPa | 471
313.27 K, 140 kPa | 474
313.27 K, 14970 kPa | 470
313.28 K, 25150 kPa | 469
313.29 K, 20040 kPa | 470
323.22 K, 160 kPa | 480
323.22 K, 20140 kPa | 475
323.22 K, 25150 kPa | 474
323.23 K, 4980 kPa | 478
323.23 K, 10110 kPa | 477
323.23 K, 14920 kPa | 476
333.2 K, 140 kPa | 487
333.2 K, 4920 kPa | 485
333.2 K, 10150 kPa | 483
333.2 K, 15060 kPa | 482
333.2 K, 19970 kPa | 481
333.21 K, 25020 kPa | 480
343.15 K, 140 kPa | 493
343.16 K, 5160 kPa | 491
343.16 K, 10270 kPa | 489
343.19 K, 15130 kPa | 488
343.19 K, 20220 kPa | 487
343.21 K, 25180 kPa | 486
353.14 K, 180 kPa | 501
353.14 K, 4970 kPa | 498
353.17 K, 9950 kPa | 496
353.17 K, 14920 kPa | 494
353.17 K, 20020 kPa | 492
353.18 K, 24950 kPa | 491
363.17 K, 110 kPa | 508
363.18 K, 5010 kPa | 507
363.29 K, 10190 kPa | 505
363.29 K, 15070 kPa | 503
363.29 K, 20150 kPa | 501
363.29 K, 25100 kPa | 500
373.19 K, 110 kPa | 516
373.2 K, 4900 kPa | 514
373.21 K, 10170 kPa | 512
373.21 K, 15020 kPa | 511
373.22 K, 19850 kPa | 509
373.25 K, 24930 kPa | 508
383.23 K, 100 kPa | 523
383.23 K, 5000 kPa | 521
383.23 K, 10040 kPa | 520
383.24 K, 15080 kPa | 518
383.25 K, 19940 kPa | 517
383.28 K, 25150 kPa | 515
393.2 K, 4910 kPa | 530
393.22 K, 110 kPa | 532
393.22 K, 10100 kPa | 530
393.23 K, 19780 kPa | 528
393.27 K, 15020 kPa | 529
393.27 K, 24830 kPa | 527

CCCCCCCCC(=O)OCC [ethyl nonanoate]
Conditions | molar heat capacity at constant pressure [J/K/mol]
303.21 K, 15150 kPa | 369
303.22 K, 9980 kPa | 370
303.24 K, 20090 kPa | 369
303.25 K, 5000 kPa | 371
303.27 K, 24930 kPa | 368
303.31 K, 110 kPa | 371
313.21 K, 19900 kPa | 375
313.22 K, 14910 kPa | 376
313.23 K, 170 kPa | 377
313.24 K, 9850 kPa | 376
313.24 K, 24930 kPa | 374
313.26 K, 5090 kPa | 377
323.19 K, 4970 kPa | 385
323.22 K, 110 kPa | 386
323.22 K, 24920 kPa | 382
323.23 K, 10020 kPa | 384
323.24 K, 20090 kPa | 382
323.26 K, 15190 kPa | 383
333.16 K, 4930 kPa | 393
333.18 K, 140 kPa | 394
333.18 K, 9950 kPa | 393
333.19 K, 20150 kPa | 392
333.21 K, 15110 kPa | 393
333.23 K, 25020 kPa | 392
343.19 K, 5070 kPa | 400
343.19 K, 9940 kPa | 400
343.19 K, 14950 kPa | 400
343.2 K, 110 kPa | 401
343.21 K, 19870 kPa | 399
343.22 K, 25210 kPa | 399
353.11 K, 4910 kPa | 407
353.14 K, 160 kPa | 407
353.14 K, 10160 kPa | 406
353.15 K, 14930 kPa | 406
353.2 K, 20210 kPa | 405
353.23 K, 25190 kPa | 405
363.12 K, 110 kPa | 414
363.14 K, 5090 kPa | 413
363.16 K, 15060 kPa | 412
363.17 K, 10020 kPa | 413
363.17 K, 20130 kPa | 411
363.19 K, 25160 kPa | 410
373.12 K, 100 kPa | 420
373.12 K, 4830 kPa | 420
373.13 K, 10020 kPa | 419
373.13 K, 15150 kPa | 418
373.14 K, 20170 kPa | 418
373.14 K, 24950 kPa | 417
383.18 K, 160 kPa | 427
383.2 K, 4950 kPa | 426
383.2 K, 10190 kPa | 425
383.2 K, 15000 kPa | 425
383.22 K, 20130 kPa | 424
383.22 K, 24950 kPa | 424
393.18 K, 110 kPa | 434
393.18 K, 5090 kPa | 433
393.18 K, 10020 kPa | 433
393.19 K, 15150 kPa | 433
393.2 K, 20190 kPa | 432
393.24 K, 24960 kPa | 432
